In experiment [1] the target is T1, human δ opioid receptors (hDOR) (Homo sapiens, UniProt P41143).
T1 construct: expressed in transfected cells; host or cells: HN9.10 neuroblastoma cell line, pCDNA3, neomycin-selected clones
Kind of experiment: Radioligand competition binding, [3H]DPDPE, hDOR membranes. The following applies: for LogIC50, hDOR, [3H]DPDPE: membranes from transfected HN9.10 cells.

For a further experiment, the system named is μ opioid receptors (GPI). Description: Guinea pig isolated ileum (GPI) assay, opioid agonist.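 Note: inhibition of electrically evoked contractions (0.1 Hz, 0.4 msec, supramaximal voltage) in organ baths at 37 °C, contraction height 3 min after each cumulative dose versus the 1 min before dosing.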 Set-up: GPI/LMMP Opioid(m) Agonist, % inh.: unit of the concentration uncertain.
For a further experiment, the target named is T2, δ opioid receptors (MVD) (Mus musculus, UniProt P32300).
T2 construct: from tissue; host or cells: mouse (ICR) isolated vas deferens
Kind of experiment: Mouse isolated vas deferens (MVD) assay, opioid agonist.

Experiment [2] addresses T3, Substance P receptors (guinea pig NK1) (Cavia porcellus, UniProt P30547).
T3 construct: from tissue; host or cells: guinea pig (Hartley) ileum LMMP, 1 μM naloxone present
Kind of experiment: Guinea pig isolated ileum (GPI) assay with substance P stimulation in presence of 1 μM naloxone. The following applies: for GPI/LMMP SP Agonist (IC50; nM): at 100 nM.
Description: Testing stopped at 1 mM concentrations of the test compound.
Analysis of GPI and MVD assays. For opioid data analysis, percentage inhibition was calculated using the average tissue contraction height for 1 min preceding the addition of the agonist divided by the contraction height 3 min after exposure to the dose of agonist. […] IC50 and Emax estimates were determined by computerized nonlinear least-squares analysis (the pharmacological statistics package FlashCalc: Dr. Michael Ossipov, University of Arizona, Tucson, Ariz.). […] A50 values represent the mean of not less than 4 tissues. A50 and Emax estimates were determined by computerized nonlinear least-squares analysis (FlashCalc).

Experiment [3] has as its target T1, human δ opioid receptors (hDOR). Description: [35S]GTP-γ-S binding assay, hDOR. The class given is biochemical. Background: GTPγS is a poorly hydrolysed GTP analogue; its binding reports G protein activation.
The next experiment deals with T4, rat NK1 (rNK1) receptor (Rattus norvegicus, UniProt P14600).
T4 construct: expressed in transfected cells; host or cells: CHO (rNK-1/CHO cell line from Dr. James Krause)
Description: Radioligand competition binding, [3H]substance P, rNK1/CHO membranes. As to conditions: for IC50: membranes from transfected CHO cells. Background: Displacement assays read how much labelled ligand stays bound in the presence of the test substance.

Experiment [4] addresses T5, rat μ opioid receptors (rMOR) (Rattus norvegicus, UniProt P33535).
T5 construct: expressed in transfected cells; host or cells: HN9.10 neuroblastoma cell line, pCDNA3, neomycin-selected clones
Kind of experiment: Radioligand competition binding, [3H]DAMGO, rMOR membranes.

In experiment [5] the target is T5, rat μ opioid receptors (rMOR). Kind of experiment: biochemical. The class given is biochemical. As to conditions: Table 39; read-out: GTP binding rMOR Emax.
For experiment [6], the target named is T6, human NK1 receptor (hNK1) (Homo sapiens, UniProt P25103).
T6 construct: expressed in transfected cells
Description: Radioligand competition binding, [3H]-Substance P, hNK1.

Setting [7] is: Table 28, read-out: MVD Opioid (d) Agonist (IC50; nM).
[8] abbreviates: Table 39, read-out: MVD opioid(delta) agonist (IC50; nM).
[9] abbreviates: electrically stimulated isolated tissue, read-out: MVD (δ), IC50.
[10] abbreviates: Substance P antagonist, GPI, Ke, in the presence of 1 μM naloxone.
Where [11] appears, read: read-out: EC50, hDOR, [35S]GTP-γ-S binding.
Setting [12] is: read-out: GTP binding hDOR Emax.
Where [13] appears, read: IC50, rNK1, Substance P radioligand.
Where [14] appears, read: Table 39, read-out: GPI/LMMP opioid(mu) agonist (IC50; nM).
Setting [15] is: Table 39, read-out: GTP binding hDOR Emax.
Setting [16] is: Table 30, read-out: GPI/LMMP Opioid(m) Agonist (IC50; nM).

Like-named read-outs stand apart in the source and are kept apart here.

The text below walks through data of patent US8026218B2, “Bifunctional analgesic compounds for opioid receptor agonists and neurokinin-1 receptor antagonists” (The University of Arizona, priority 2006, dated 2011).

T4 sequence (P14600 whole entry): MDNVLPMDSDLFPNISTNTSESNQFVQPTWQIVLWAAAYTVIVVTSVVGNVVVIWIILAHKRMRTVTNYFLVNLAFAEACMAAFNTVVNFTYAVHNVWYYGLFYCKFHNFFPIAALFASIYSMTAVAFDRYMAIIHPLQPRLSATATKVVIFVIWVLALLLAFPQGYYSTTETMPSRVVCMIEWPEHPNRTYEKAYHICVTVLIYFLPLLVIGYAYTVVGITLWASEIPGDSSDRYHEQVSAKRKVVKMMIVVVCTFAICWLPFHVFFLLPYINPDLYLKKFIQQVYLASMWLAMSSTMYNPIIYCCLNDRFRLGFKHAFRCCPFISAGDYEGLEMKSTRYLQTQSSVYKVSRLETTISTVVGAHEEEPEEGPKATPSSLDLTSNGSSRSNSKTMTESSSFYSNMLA
T2 sequence (P32300 whole entry): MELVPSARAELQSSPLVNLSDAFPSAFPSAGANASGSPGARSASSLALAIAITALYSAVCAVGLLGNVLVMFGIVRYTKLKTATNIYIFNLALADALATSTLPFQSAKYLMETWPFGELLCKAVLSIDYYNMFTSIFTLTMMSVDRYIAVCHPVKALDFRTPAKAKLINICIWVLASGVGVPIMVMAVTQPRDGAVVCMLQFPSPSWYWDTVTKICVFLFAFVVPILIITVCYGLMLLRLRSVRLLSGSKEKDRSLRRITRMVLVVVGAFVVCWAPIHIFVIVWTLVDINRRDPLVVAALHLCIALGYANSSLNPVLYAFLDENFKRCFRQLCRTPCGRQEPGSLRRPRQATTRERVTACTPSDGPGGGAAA
T3 sequence (P30547 whole entry): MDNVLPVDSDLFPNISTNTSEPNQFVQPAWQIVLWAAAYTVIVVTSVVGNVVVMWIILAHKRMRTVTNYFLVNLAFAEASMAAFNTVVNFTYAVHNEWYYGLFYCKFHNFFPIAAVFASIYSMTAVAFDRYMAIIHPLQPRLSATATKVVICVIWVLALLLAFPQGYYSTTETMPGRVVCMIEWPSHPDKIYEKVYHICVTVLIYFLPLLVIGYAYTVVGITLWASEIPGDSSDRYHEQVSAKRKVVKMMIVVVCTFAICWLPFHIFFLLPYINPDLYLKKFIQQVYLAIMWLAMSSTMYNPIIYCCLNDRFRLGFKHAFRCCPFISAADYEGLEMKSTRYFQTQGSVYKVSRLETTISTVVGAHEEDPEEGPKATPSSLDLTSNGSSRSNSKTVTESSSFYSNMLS
T1 sequence (P41143 whole entry): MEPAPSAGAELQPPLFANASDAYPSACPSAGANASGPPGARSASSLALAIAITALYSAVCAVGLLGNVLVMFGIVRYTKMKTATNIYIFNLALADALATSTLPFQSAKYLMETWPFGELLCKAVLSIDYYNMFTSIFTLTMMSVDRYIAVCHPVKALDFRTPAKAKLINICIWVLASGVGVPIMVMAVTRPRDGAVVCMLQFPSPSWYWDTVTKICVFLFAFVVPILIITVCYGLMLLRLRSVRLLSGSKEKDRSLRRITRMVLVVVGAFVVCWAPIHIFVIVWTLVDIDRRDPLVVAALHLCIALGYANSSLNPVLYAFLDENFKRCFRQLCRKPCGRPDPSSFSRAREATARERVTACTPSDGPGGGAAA
T5 sequence (P33535 whole entry): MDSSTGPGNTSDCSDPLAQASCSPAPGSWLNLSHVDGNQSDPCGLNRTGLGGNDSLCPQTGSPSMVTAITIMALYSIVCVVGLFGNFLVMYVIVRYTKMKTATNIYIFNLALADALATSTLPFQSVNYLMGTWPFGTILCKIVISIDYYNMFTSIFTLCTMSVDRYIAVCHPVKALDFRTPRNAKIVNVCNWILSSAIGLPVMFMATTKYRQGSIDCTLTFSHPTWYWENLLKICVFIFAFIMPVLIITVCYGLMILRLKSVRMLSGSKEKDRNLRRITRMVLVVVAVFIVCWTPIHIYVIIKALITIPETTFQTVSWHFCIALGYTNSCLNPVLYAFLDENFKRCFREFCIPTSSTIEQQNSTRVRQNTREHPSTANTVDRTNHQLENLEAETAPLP
T6 sequence (P25103 whole entry): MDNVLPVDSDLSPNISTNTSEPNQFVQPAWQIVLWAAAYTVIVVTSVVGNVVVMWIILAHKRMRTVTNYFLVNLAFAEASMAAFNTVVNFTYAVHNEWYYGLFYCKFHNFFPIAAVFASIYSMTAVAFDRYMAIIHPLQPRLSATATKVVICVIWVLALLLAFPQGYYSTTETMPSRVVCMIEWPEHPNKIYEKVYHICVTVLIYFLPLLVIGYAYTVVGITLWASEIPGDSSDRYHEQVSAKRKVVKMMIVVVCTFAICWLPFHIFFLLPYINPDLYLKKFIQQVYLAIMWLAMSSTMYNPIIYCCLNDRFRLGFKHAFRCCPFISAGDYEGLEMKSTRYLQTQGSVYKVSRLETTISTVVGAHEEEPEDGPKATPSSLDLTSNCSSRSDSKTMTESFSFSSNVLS
Description for μ opioid receptors (GPI): Guinea Pig Isolated Ileum Assay. […] These tissues were tied to gold chains with suture silk and mounted between platinum wire electrodes in 20 mL organ baths at a tension of 1 g and bathed in oxygenated (95:5 O2:CO2) Kreb's bicarbonate buffer at 37° C. and stimulated electrically (0.1 Hz, 0.4 msec duration) at supramaximal voltage. Following an equilibration period, compounds were added cumulatively to the bath in volumes of 14-60 μL until maximum inhibition was reached. A baseline PL-017 was constructed to determine tissue integrity and allow calculation of antagonist activity before opioid analog testing began.
For opioid data analysis, percentage inhibition was calculated using the average tissue contraction height for 1 min preceding the addition of the agonist divided by the contraction height 3 min after exposure to the dose of agonist. […] IC50 and Emax estimates were determined by computerized nonlinear least-squares analysis (the pharmacological statistics package FlashCalc: Dr. Michael Ossipov, University of Arizona, Tucson, Ariz.). […] A50 values represent the mean of not less than 4 tissues. A50 and Emax estimates were determined by computerized nonlinear least-squares analysis (FlashCalc).

`CCCC[C@@H](C(=O)N1CCC[C@H]1C(=O)N[C@@H](CC(C)C)C(=O)N[C@@H](Cc1c[nH]c2ccccc12)C(=O)OCc1cc(C(F)(F)F)cc(C(F)(F)F)c1)N(C)C(=O)[C@H](Cc1ccccc1)NC(=O)CNC(=O)[C@@H](C)NC(=O)[C@@H](N)Cc1ccc(O)cc1` [TY019, H-Tyr-D-Ala-Gly-Phe-N-Me-Nle-Pro-Leu-Trp-O-3,5-Bzl(CF3)2]: the “LogIC50, hDOR, [3H]DPDPE” value in experiment [1] is given as −6.79 ± 0.13. Further, the “GPI/LMMP Opioid(m) Agonist, % inh.” value in the experiment on μ opioid receptors (GPI) (Table 28, at 1 (unit uncertain)) worked out at 12% inh. at 1 mM. Further, in the experiment with μ opioid receptors (GPI) (Table 39, concentration not given), the “GPI/LMMP opioid(mu) agonist, %” value amounted to 11.90%. For the same molecule, the “GPI (μ), effect at single concentration” value with μ opioid receptors (GPI) (at 1 μM) came out at 12% at 1 μM^b. Further, the IC50 on δ opioid receptors (MVD) (setting [7]) is 188 nM; on δ opioid receptors (MVD) (setting [8]), 188 nM; on δ opioid receptors (MVD) (setting [9]) it was 188 ± 21 nM; in experiment [2], 4.6 nM; on rat NK1 (rNK1) receptor (setting [13]) it was 135 nM; at rat NK1 (rNK1) receptor (LogIC50, rNK1, Substance P radioligand) it was 112 nM. For the same molecule, in experiment [2] (setting [10]), the Kb (usually the equilibrium dissociation constant of an antagonist, usually derived from a functional assay) was 4.6 ± 1.2 nM. Also, in experiment [2] (Table 28), the “GPI/LMMP SP Agonist, % inh.” value came to 2% inh. at 1 mM. In experiment [2] (Table 39, @ 1 uM), the “GPI/LMMP SP Agonist, % @ 1 uM” value stood at 1.6%@ 1 uM. Besides, the activation at 1 µM in [2] (read-out: Substance P GPI agonist (A50), at 1 μM, contraction relative to initial muscle contraction with KCl) was determined as 2%. Also, the “LogEC50, hDOR, [35S]GTP-γ-S binding” value in [3] is −6.44 ± 0.27. In addition, the EC50 in experiment [3] (setting [11]) and in experiment [3] (read-out: GTP binding hDOR EC50) was 364 nM throughout. The Emax (usually the size of the effect at its maximum, as opposed to the concentration needed) in [3] (read-out: Emax, hDOR, [35S]GTP-γ-S binding) amounted to 316%; in [3] (setting [12]) it was 283%; in experiment [3] (read-out: GTP binding hDOR Emax (%)), 283%.
Turning to `CC(C)C[C@H](NC(=O)[C@@H]1CCCN1C(=O)[C@H](CC[S+](C)[O-])NC(=O)[C@H](Cc1ccccc1)NC(=O)CNC(=O)[C@@H](C)NC(=O)[C@@H](N)Cc1ccc(O)cc1)C(=O)N[C@@H](Cc1c[nH]c2ccccc12)C(=O)OCc1cc(C(F)(F)F)cc(C(F)(F)F)c1` (stereo partly drawn) [TY023, H-Tyr-D-Ala-Gly-Phe-Met(O)-Pro-Leu-Trp-O-3,5-Bzl(CF3)2], in experiment [1], the “LogIC50, hDOR, [3H]DPDPE” value is reported as −7.92 ± 0.04. Further, the Ki – broadly, a dissociation constant, usually derived from enzyme kinetics or from competition with a known ligand – was 4.8 nM in experiment [1] (read-out: Ki, hDOR, [3H]DPDPE); 54.5 nM on rat NK1 (rNK1) receptor (Ki, rNK1, text); 0.2 nM on rat NK1 (rNK1) receptor (Table 39, read-out: Affinity rNK1 (Ki; nM)). Also, the IC50 in the experiment with μ opioid receptors (GPI) (Table 28, read-out: GPI/LMMP Opioid(m) Agonist (IC50; nM)) amounted to 154 nM; with μ opioid receptors (GPI) (setting [14]), 154 nM; with μ opioid receptors (GPI) (electrically stimulated isolated tissue, read-out: GPI (μ), IC50) it was 154 nM; on δ opioid receptors (MVD) (setting [7]), 33 nM; on δ opioid receptors (MVD) (setting [8]), 33 nM; at δ opioid receptors (MVD) (setting [9]) it was 33 nM. The molecule further returned an IC50 at rat NK1 (rNK1) receptor (setting [13]) of 54.5 nM. Moreover, the Kb in [2] (setting [10]) worked out at 7.8 ± 4 nM. Further, in [3], the “LogEC50, hDOR, [35S]GTP-γ-S binding” value was −8.73 ± 0.20. Also, the EC50 (as a rule, the concentration giving half of the maximal effect) in experiment [3] (Table 27, read-out: GTP binding hDOR EC50) was 1.8 nM; in experiment [3] (Table 39, read-out: GTP binding hDOR EC50) it was 1.8 nM; in experiment [3] (setting [11]), 1.8 nM. The Emax in [3] (Table 27, read-out: GTP binding hDOR Emax (%)) is 52.8%; in experiment [3] (setting [15]), 52.8%; in [3] (net total bound/basal binding × 100, read-out: Emax, hDOR, [35S]GTP-γ-S binding) it was 53%.
On to `CSCC[C@H](NC(=O)[C@H](Cc1ccccc1)NC(=O)CNC(=O)[C@@H](C)NC(=O)[C@@H](N)Cc1c(C)cc(O)cc1C)C(=O)N1CCC[C@H]1C(=O)N[C@@H](CC(C)C)C(=O)N[C@@H](Cc1c[nH]c2ccccc12)C(=O)NCc1ccccc1` [TY034], for which the inhibitory constant (Ki) is 0.1 nM in experiment [1]; 0.14 nM in experiment [4]; 317 nM at rat NK1 (rNK1) receptor (Affinity rNK1 (Ki; nM), Table 39). In addition, the IC50 with μ opioid receptors (GPI) (setting [16]) amounted to 11.4 nM; in the experiment on μ opioid receptors (GPI) (setting [14]), 11.4 nM; on δ opioid receptors (MVD), 6.85 nM. The Kb in experiment [2] (GPI/LMMP Substance P Antagonist (Ke; nM), Table 30) came out at 36.9 nM. Further, the “GPI/LMMP Substance P Agonist (IC50; nM)” value in [2] (Table 30) is listed as “None”. In experiment [2] (Table 39), the “GPI/LMMP SP Agonist (IC50; nM)” value was “none”. Also, the Emax was 21% in experiment [3] (setting [15]) and 58% in experiment [5].
With `CSCC[C@H](NC(=O)[C@H](Cc1ccccc1)NC(=O)CNC(=O)[C@@H](C)NC(=O)[C@@H](N)Cc1c(C)cc(O)cc1C)C(=O)N1CCC[C@H]1C(=O)N[C@@H](CC(C)C)C(=O)N[C@@H](Cc1c[nH]c2ccccc12)C(=O)NCc1cc(C(F)(F)F)cc(C(F)(F)F)c1` [TY032], the results for the Ki in [1] and in experiment [6] were 0.12 nM and 0.008 nM, respectively. Besides, the IC50 in the experiment with μ opioid receptors (GPI) (setting [16]) worked out at 18.6 nM; in the experiment with μ opioid receptors (GPI) (setting [14]), 18.6 nM; at δ opioid receptors (MVD), 1.82 nM. Further, the “GPI/LMMP Substance P Agonist (IC50; nM)” value in [2] (Table 30) was “None”. For the same molecule, the “GPI/LMMP SP Agonist (IC50; nM)” value in experiment [2] (Table 39) was “none”. A half-maximal effect in experiment [3] (GTP binding hDOR EC50) (EC50) was put at 1.2 nM. Also, the Emax was found to be 24% in experiment [3] (setting [12]) and 74% in experiment [5].
